Where a name gives a salt, the structure may show the parent alone.

The test system of one assay is NRG1-ERBB4 signaling. The assay is described as follows: Nrg1-ERBB4-PIK3R1 split TEV co-culture compound screen of the NIH Clinical Collection. The class given is cell-based, human.
Details: not given
Compound `CNCC[C@H](Oc1cccc2ccccc12)c1cccs1` [DULOXETINE HCl] registered a Z-SCORE of -0.22.

Staying with this assay, now noted: NIH Clinical Collection NCC-003 raw data; compounds ranked by Z-score; 'flagged' given instead of a Z-score.
In turn, `Nc1nc(Cl)nc2c1ncn2[C@H]1C[C@H](O)[C@@H](CO)O1` [2-Chloro-2'-deoxyadenosine, reference compound] displayed a Z-SCORE of -3.5. The same measure, in the same setting: for `O=C([O-])C[C@H](O)C[C@H](O)/C=C/c1c(C2CC2)nc2ccccc2c1-c1ccc(F)cc1.O=C([O-])C[C@H](O)C[C@H](O)/C=C/c1c(C2CC2)nc2ccccc2c1-c1ccc(F)cc1.[Ca+2]` [ITAVASTATIN Ca] the value was “flagged”. `CC(C(=O)O)c1ccc(-c2ccccc2)c(F)c1` (stereo not drawn) [Flurbiprofen, reference compound] gave a Z-SCORE of -1.64.

Staying with this assay, now noted: compound screen of the NIH Clinical Collection, sheet raw data NCC-003; compounds ranked by Z-score.
The compound `CC(=O)NCCCCCCNC(C)=O` had a Z-SCORE of 1.08.

The compound `Nc1ncnc2c1ncn2[C@@H]1O[C@H](CO)C[C@H]1O` [3'-Deoxydenosine, reference compound] showed a Z-SCORE of 5.88. `CCc1ccc(CCOc2ccc(CC3SC(=O)NC3=O)cc2)nc1` (stereo not drawn) [PIOGLITAZONE HCl] yielded a Z-SCORE of -0.64. On to `COc1ccc(C(CN(C)C)C2(O)CCCCC2)cc1` (stereo not drawn) [VENLAFAXINE HCl], for which the Z-SCORE worked out at 0.54. On the same count and under the same terms, for `CN1C(=O)CN=C(c2ccccc2)c2cc([N+](=O)[O-])ccc21` [Nimetazepam] the value was 0.16.

Consider `CCN(CC)CC(=O)Nc1c(C)cccc1C` [LIDOCAINE], for which the Z-SCORE turned out to be 1.02.

`C[C@]12CC[C@H]3[C@@H](CCC4=CC(=O)CC[C@@H]43)[C@@H]1CC[C@@H]2O` [nandrolone]: the Z-SCORE is -0.57.

On to `COc1ccc(C2CNC(=O)C2)cc1OC1CCCC1` (stereo not drawn) [ROLIPRAM], for which the Z-SCORE was determined as 1.06. `CCC1=C(C)CN(C(=O)NCCc2ccc(S(=O)(=O)NC(=O)N[C@H]3CC[C@H](C)CC3)cc2)C1=O` [GLIMEPIRIDE] displayed a Z-SCORE of 0.02. On the same count and under the same terms, under `COc1cc2nc(N(C)CCCNC(=O)C3CCCO3)nc(N)c2cc1OC` (stereo not drawn) [ALFUZOSIN] stands 0.03; under `COc1cc(OC)c(C(=O)CCCN2CCCC2)c(OC)c1.Cl` [Buflomedil HCl], 0.75; under `CC(C)Oc1ccc2c(=O)c(-c3ccccc3)coc2c1` [IPRIFLAVONE], 1.41. On the same count and under the same terms, under `CCc1oc2ccccc2c1C(=O)c1cc(Br)c(O)c(Br)c1` stands 0.47; under `C[C@@H]1C[C@H]2[C@@H]3C[C@H](F)C4=CC(=O)C(Cl)=C[C@]4(C)[C@@]3(F)[C@@H](O)C[C@]2(C)[C@@]1(O)C(=O)CO.O` [HALOMETASONE MONOHYDRATE], -0.25. Same read-out and setting: under `Cc1ncc([N+](=O)[O-])n1CC(C)O` (stereo not drawn) stands 1.35; under `N=C(N)NC(=O)c1nc(Cl)c(N)nc1N`, 0.85; under `CC[N+](C)(CC)CCOC(=O)C(O)(c1ccccc1)C1CCCCC1` (stereo not drawn) [OXYPHENONIUM BROMIDE], -0.45. Consider `C=CC1=C(C(=O)O)N2C(=O)[C@@H](NC(=O)/C(=N\O)c3csc(N)n3)[C@H]2SC1`, for which the Z-SCORE was found to be 0.68. Compound `CC(N/C(=N\C#N)Nc1ccncc1)C(C)(C)C` (stereo not drawn) [Pinacidil monohydrate] yielded a Z-SCORE of 0.85. The same measure, in the same setting: under `CCCCC[C@H](O)/C=C/[C@H]1[C@H](O)CC(=O)[C@@H]1CCCCCCC(=O)O` [Prostaglandin E1] stands 0.18; under `O=C1c2c(O)cc(O)cc2OC(c2ccc(O)c(O)c2)C1O` (racemic) [TAXIFOLIN-(+/-)], -0.12. `CCOC(=O)C1(CCCCCCOc2ccc(Cl)cc2)CO1` (stereo not drawn) displayed a Z-SCORE of 0.96. In turn, `CCOC(=O)c1ccc(OC(=O)CCCCCN=C(N)N)cc1.CS(=O)(=O)O` [Gabexate mesylate] showed a Z-SCORE of -0.47. `C[C@]12CCC(=O)C[C@@H]1CC[C@@H]1[C@@H]2CC[C@@]2(C)[C@H]1CC[C@]2(C)O` [Mestanolone]: the Z-SCORE amounted to 1.19. `Clc1ccc2c(c1)CCc1cccnc1C2=C1CCNCC1`: the Z-SCORE stood at 0.4. Take `CCCc1c(OCCCCc2nnn[nH]2)ccc(C(C)=O)c1O` [LY 171883]: the Z-SCORE came to 2.04.

Take `Nc1nc2ccc(Cl)cc2c2nc(-c3ccco3)nn12` [CGS 15943, reference compound]: the Z-SCORE came to 6.59.

The compound `CCCCc1nc(Cl)c(CO)n1Cc1ccc(-c2ccccc2-c2nn[nH]n2)cc1` [LOSARTAN Potassium] gave a Z-SCORE of -0.12.

The compound `CCOC(=O)OC(C)OC1=C(C(=O)Nc2ccccn2)N(C)S(=O)(=O)c2ccccc21` (stereo not drawn) [AMPIROXICAM] came in with a Z-SCORE of 0.43.

Staying with this assay, now noted: compounds at 10 μM, 24 h; PC12 split TEV assay cells co-cultured with Nrg1-expressing PC12 cells; analysed with cellHTS2.
Consider `CC(=O)[C@@]1(O)CC[C@H]2[C@@H]3C[C@H](C)C4=CC(=O)C=C[C@]4(C)[C@@]3(F)[C@@H](O)C[C@@]21C` [Fluorometholone, reference compound], for which the Z-SCORE is recorded as -0.4. As to `CC1=C(/C=C/C(C)=C/C=C/C(C)=C\C(=O)O)C(C)(C)CCC1` [Isotretinoin, reference compound], the Z-SCORE is listed as -0.41. On the same count and under the same terms, for `Nc1nc(Cl)nc2c1ncn2[C@H]1C[C@H](O)[C@@H](CO)O1` [2-Chloro-2'-deoxyadenosine, reference compound] the value was -3.5. For the compound `CCN1CCN(C(=O)N[C@@H](C(=O)N[C@@H]2C(=O)N3[C@@H]2SC(C)(C)[C@@H]3C(=O)O)c2ccccc2)C(=O)C1=O` [PIPERACILLIN SODIUM SALT, reference compound], the Z-SCORE stood at 0.05. On to `NS(=O)(=O)c1cc2c(cc1Cl)NCNS2(=O)=O` [Hydrochlorothiazide, reference compound], for which the Z-SCORE is -0.03. As to `CC1Cc2ccccc2N1NC(=O)c1ccc(Cl)c(S(N)(=O)=O)c1` (stereo not drawn) [INDAPAMIDE, reference compound], the Z-SCORE amounted to 0.07. Still for that read-out and setting: for `Nc1ncnc2c1ncn2[C@@H]1O[C@H](CO)C[C@H]1O` [3'-Deoxydenosine, reference compound] the value was 5.88; for `CN1CCN(CC/C=C2/c3ccccc3Sc3ccc(S(=O)(=O)N(C)C)cc32)CC1` [THIOTHIXENE, reference compound], 1.3; for `CCc1cc(C(N)=S)ccn1` [Ethionamide, reference compound], 0.42. `Cc1cnc(C(=O)NCCc2ccc(S(=O)(=O)NC(=O)NC3CCCCC3)cc2)cn1` [GLIPIZIDE, reference compound] showed a Z-SCORE of 0.73. Same read-out and setting: under `O=C(O)COCCN1CCN(C(c2ccccc2)c2ccc(Cl)cc2)CC1` (stereo not drawn) [Cetirizine, reference compound] stands 0.89; under `Nc1cc(N2CCCCC2)nc(N)[n+]1[O-]` [Minoxidil, reference compound], 0.25. Regarding `Cc1ccc(C)c(OCCCC(C)(C)C(=O)O)c1` [GEMFIBROZIL, reference compound], the Z-SCORE is recorded as 0.52.

For the compound `CC(C)n1c(/C=C/C(O)CC(O)CC(=O)O)c(-c2ccc(F)cc2)c2ccccc21` (stereo not drawn) [fluvastatin, reference compound], the Z-SCORE result was “flagged”.

For the compound `Nc1nc(F)nc2c1ncn2[C@@H]1O[C@H](CO)[C@@H](O)[C@@H]1O` [FLUDARABINE, reference compound], the Z-SCORE is 0.7.

`NS(=O)(=O)Cc1noc2ccccc12` [Zonisamide, reference compound] returned a Z-SCORE of -0.47. `NS(=O)(=O)c1cc2c(cc1C(F)(F)F)NC(Cc1ccccc1)NS2(=O)=O` (stereo not drawn) [Bendrofluazide, reference compound] gave a Z-SCORE of 0.53. Compound `CC(=O)CC(c1ccccc1)c1c(O)c2ccccc2oc1=O` (stereo not drawn) [WARFARIN SODIUM, reference compound] displayed a Z-SCORE of -0.02. On the same count and under the same terms, for `CC(C)OC(=O)C(C)(C)Oc1ccc(C(=O)c2ccc(Cl)cc2)cc1` [FENOFIBRATE, reference compound] the value was 0.77; for `OC(Cn1cncn1)(Cn1cncn1)c1ccc(F)cc1F` [Fluconazole, reference compound], 0.28; for `Cc1nnc(SCC2=C(C(=O)O)N3C(=O)[C@@H](NC(=O)Cn4cnnn4)[C@H]3SC2)s1` [CEFAZOLIN SODIUM SALT, reference compound], -0.74.

In turn, `CCCNC(C)C(=O)Nc1ccccc1C` (stereo not drawn) [PRILOCAINE HYDROCHLORIDE, reference compound] yielded a Z-SCORE of 0.68. The compound `CC[N+](C)(C)c1cccc(O)c1` [EDROPHONIUM CHLORIDE, reference compound] yielded a Z-SCORE of -1.53. Same read-out and setting: under `CC(C)(C)NCC(O)COc1cccc2c1CC(O)C(O)C2` (stereo not drawn) [NADOLOL, reference compound] stands 0.1; under `OC(CCN1CCCC1)(c1ccccc1)C1CCCCC1` (stereo not drawn) [Kemadrin, reference compound], -0.51; under `CC1(C)O[C@@H]2C[C@H]3[C@@H]4CCC5=CC(=O)C=C[C@]5(C)[C@@]4(F)[C@@H](O)C[C@]3(C)[C@]2(C(=O)CO)O1` [TRIAMCINOLONE ACETONIDE, reference compound], -1.51. On the same count and under the same terms, under `OCCN1CCN(CCCN2c3ccccc3Sc3ccc(Cl)cc32)CC1` [PERPHENAZINE, reference compound] stands 0.23; under `CN(C)c1nc(N(C)C)nc(N(C)C)n1` [Altretamine, reference compound], -0.4; under `Cc1nccn1CC1CCc2c(c3ccccc3n2C)C1=O` (stereo not drawn) [Ondansetron, reference compound], 0.12. Still for that read-out and setting: for `CC(CN1c2ccccc2Sc2ccccc21)N(C)C` (stereo not drawn) [Phenergan, reference compound] the value was 0.41.

In turn, `O=C(N[C@H](CO)[C@H](O)c1ccc([N+](=O)[O-])cc1)C(Cl)Cl` [Chloramphenicol, reference compound] registered a Z-SCORE of 0.74.

`CCc1c(C)[nH]c2c1C(=O)C(CN1CCOCC1)CC2` (stereo not drawn) [Moban, reference compound] showed a Z-SCORE of -0.44. The compound `CN(C)[C@@H]1C(O)=C(C(N)=O)C(=O)[C@@]2(O)C(O)=C3C(=O)c4c(O)cccc4[C@@](C)(O)[C@H]3C[C@@H]12` [TETRACYCLINE, reference compound] came in with a Z-SCORE of 0.95. Turning to `CC(C(=O)O)c1ccc(-c2ccccc2)c(F)c1` (stereo not drawn) [Flurbiprofen, reference compound], the Z-SCORE is reported as 0.7. Turning to `CCCNCC(O)COc1ccccc1C(=O)CCc1ccccc1` (stereo not drawn) [Rythmol, reference compound], the Z-SCORE is on record as 0.2. Compound `Cc1noc(NS(=O)(=O)c2ccc(N)cc2)c1C` [Sulfisoxazole, reference compound] yielded a Z-SCORE of 1.21.

The record behind these values is paper PMC5653977 (EMBO Molecular Medicine, 2017).
